From ChEMBL document CHEMBL3885861, “Open TG-GATES”

Organism: Rattus norvegicus
Assay: Open TG-GATES - Regimen: Daily Repeat
Type: toxicity, organism-based, Sprague-Dawley
Set-up: regimen Daily Repeat, gender Male, age 6 weeks
Conditions: in vivo, po, route gavage; for APTT / Bas / Eos / Fbg / Hb / Ht / Lym / MCH / MCHC / MCV / Mono / Neu / PT / Plat / RBC / Ret / WBC: tissue Blood; for KIDNEY_L / KIDNEY_R / KIDNEY_TOTAL: tissue Kidney; for LIVER: tissue Liver; for A/G / ALP / ALT / AST / BUN / CRE / Ca / Cl / DBIL / GLC / IP / K / LDH / Na / PL / RALB / TBIL / TC / TG / TP / gamma-GTP: tissue Plasma
[1] = 10 mg/kg, 72 h, dose level Middle, time 3 day
[2] = 10 mg/kg, […], dose level Middle, time 7 day
[3] = 10 mg/kg, […], dose level Middle, time 14 day
[4] = 10 mg/kg, […], dose level Middle, time 28 day
[5] = 30 mg/kg, 72 h, dose level High, time 3 day
[6] = 30 mg/kg, […], dose level High, time 7 day
[7] = 30 mg/kg, […], dose level High, time 14 day
[8] = 30 mg/kg, […], dose level High, time 28 day

Cn1cnc([N+](=O)[O-])c1Sc1ncnc2nc[nH]c12 [AZATHIOPRINE]
TERMINAL_BW [1]: 204.1 g
APTT [1]: 20.4 s
Bas [1]: 0%
Eos [1]: 0.8%
Fbg [1]: 324.8 mg/dL
Hb [1]: 13.4 g/dL
Ht [1]: 39.3%
Lym [1]: 83.6%
MCH [1]: 21.4 pg
MCHC [1]: 33.9%
MCV [1]: 62.9 fL
Mono [1]: 2%
Neu [1]: 12.4%
PT [1]: 15.7 s
Plat [1]: 125.8 x10_4/uL
RBC [1]: 625.6 x10_4/ul
Ret [1]: 5.2%
WBC [1]: 72.4 x10_2/uL
KIDNEY_L [1]: 0.9 g
KIDNEY_R [1]: 0.9 g
KIDNEY_TOTAL [1]: 1.9 g
LIVER [1]: 9.8 g
A/G [1]: 1.2
ALP [1]: 1704 IU/L
ALT [1]: 41.4 IU/L
AST [1]: 73 IU/L
BUN [1]: 16.2 mg/dL
CRE [1]: 0.1 mg/dL
Ca [1]: 11.2 mg/dL
Cl [1]: 106.2 meq/L
DBIL [1]: 0 mg/dL
GLC [1]: 184.8 mg/dL
IP [1]: 7.2 mg/dL
K [1]: 4.2 meq/L
LDH [1]: 196.8 IU/L
Na [1]: 143 meq/L
PL [1]: 148.2 mg/dL
RALB [1]: 3.1 g/dL
TBIL [1]: 0.014 mg/dL
TC [1]: 77.4 mg/dL
TG [1]: 85.2 mg/dL
TP [1]: 5.7 g/dL
gamma-GTP [1]: 1 IU/L
TERMINAL_BW [2]: 234.4 g
TERMINAL_BW [3]: 294.1 g
TERMINAL_BW [4]: 329.3 g
APTT [2]: 22.4 s
Bas [2]: 0%
Eos [2]: 1%
Fbg [2]: 325.8 mg/dL
Hb [2]: 13.7 g/dL
Ht [2]: 39%
Lym [2]: 83%
MCH [2]: 21.5 pg
MCHC [2]: 35.1%
MCV [2]: 61.5 fL
Mono [2]: 2.4%
Neu [2]: 12.4%
PT [2]: 15.4 s
Plat [2]: 143.7 x10_4/uL
RBC [2]: 635 x10_4/ul
Ret [2]: 6.2%
WBC [2]: 81.7 x10_2/uL
APTT [3]: 21.7 s
Bas [3]: 0%
Eos [3]: 0.6%
Fbg [3]: 333 mg/dL
Hb [3]: 14 g/dL
Ht [3]: 40.1%
Lym [3]: 81.4%
MCH [3]: 21.1 pg
MCHC [3]: 35%
MCV [3]: 60.3 fL
Mono [3]: 1.6%
Neu [3]: 14.8%
PT [3]: 15.6 s
Plat [3]: 116.8 x10_4/uL
RBC [3]: 664.6 x10_4/ul
Ret [3]: 4.2%
WBC [3]: 93.4 x10_2/uL
APTT [4]: 22.4 s
Bas [4]: 0%
Eos [4]: 1.4%
Fbg [4]: 347.6 mg/dL
Hb [4]: 11.8 g/dL
Ht [4]: 34.5%
Lym [4]: 74%
MCH [4]: 19.3 pg
MCHC [4]: 33.9%
MCV [4]: 56.9 fL
Mono [4]: 3.2%
Neu [4]: 19.4%
PT [4]: 16.5 s
Plat [4]: 95.9 x10_4/uL
RBC [4]: 615.2 x10_4/ul
Ret [4]: 2.4%
WBC [4]: 54.1 x10_2/uL
KIDNEY_L [2]: 1 g
KIDNEY_R [2]: 1 g
KIDNEY_TOTAL [2]: 2 g
KIDNEY_L [3]: 1.1 g
KIDNEY_R [3]: 1.2 g
KIDNEY_TOTAL [3]: 2.3 g
KIDNEY_L [4]: 1.3 g
KIDNEY_R [4]: 1.3 g
KIDNEY_TOTAL [4]: 2.6 g
LIVER [2]: 11.1 g
LIVER [3]: 13.4 g
LIVER [4]: 13.3 g
A/G [2]: 1.1
ALP [2]: 1444.2 IU/L
ALT [2]: 37.8 IU/L
AST [2]: 69.8 IU/L
BUN [2]: 18.2 mg/dL
CRE [2]: 0.1 mg/dL
Ca [2]: 10.7 mg/dL
Cl [2]: 105.8 meq/L
DBIL [2]: 0 mg/dL
GLC [2]: 193.2 mg/dL
IP [2]: 6.8 mg/dL
K [2]: 4.2 meq/L
LDH [2]: 265.2 IU/L
Na [2]: 142.8 meq/L
PL [2]: 166.4 mg/dL
RALB [2]: 3.1 g/dL
TBIL [2]: 0 mg/dL
TC [2]: 89.4 mg/dL
TG [2]: 104.6 mg/dL
TP [2]: 6 g/dL
gamma-GTP [2]: 1 IU/L
A/G [3]: 1.1
ALP [3]: 1327.6 IU/L
ALT [3]: 33.4 IU/L
AST [3]: 62.8 IU/L
BUN [3]: 17.8 mg/dL
CRE [3]: 0.2 mg/dL
Ca [3]: 11.3 mg/dL
Cl [3]: 105.2 meq/L
DBIL [3]: 0 mg/dL
GLC [3]: 200.2 mg/dL
IP [3]: 6.8 mg/dL
K [3]: 4 meq/L
LDH [3]: 161 IU/L
Na [3]: 143 meq/L
PL [3]: 174.4 mg/dL
RALB [3]: 3.2 g/dL
TBIL [3]: 0.006 mg/dL
TC [3]: 93.8 mg/dL
TG [3]: 93.4 mg/dL
TP [3]: 6.2 g/dL
gamma-GTP [3]: 1.8 IU/L
A/G [4]: 1.1
ALP [4]: 971.6 IU/L
ALT [4]: 82 IU/L
AST [4]: 182.8 IU/L
BUN [4]: 20.8 mg/dL
CRE [4]: 0.2 mg/dL
Ca [4]: 10.7 mg/dL
Cl [4]: 107 meq/L
DBIL [4]: 0.034 mg/dL
GLC [4]: 169.4 mg/dL
IP [4]: 6.3 mg/dL
K [4]: 3.9 meq/L
LDH [4]: 602 IU/L
Na [4]: 141.4 meq/L
PL [4]: 169.6 mg/dL
RALB [4]: 3.3 g/dL
TBIL [4]: 0.066 mg/dL
TC [4]: 102 mg/dL
TG [4]: 63.4 mg/dL
TP [4]: 6.4 g/dL
gamma-GTP [4]: 1.2 IU/L
TERMINAL_BW [5]: 201.9 g
APTT [5]: 19.5 s
Bas [5]: 0%
Eos [5]: 0.8%
Fbg [5]: 327.6 mg/dL
Hb [5]: 12.7 g/dL
Ht [5]: 37.9%
Lym [5]: 86%
MCH [5]: 21.7 pg
MCHC [5]: 33.5%
MCV [5]: 64.7 fL
Mono [5]: 2.2%
Neu [5]: 9.4%
PT [5]: 15.3 s
Plat [5]: 140.5 x10_4/uL
RBC [5]: 585.2 x10_4/ul
Ret [5]: 2.3%
WBC [5]: 55.5 x10_2/uL
KIDNEY_L [5]: 0.9 g
KIDNEY_R [5]: 0.9 g
KIDNEY_TOTAL [5]: 1.8 g
LIVER [5]: 9.7 g
A/G [5]: 1.2
ALP [5]: 1508.2 IU/L
ALT [5]: 33 IU/L
AST [5]: 68.2 IU/L
BUN [5]: 17.2 mg/dL
CRE [5]: 0.1 mg/dL
Ca [5]: 11.3 mg/dL
Cl [5]: 106 meq/L
DBIL [5]: 0 mg/dL
GLC [5]: 185 mg/dL
IP [5]: 6.8 mg/dL
K [5]: 4.4 meq/L
LDH [5]: 199.8 IU/L
Na [5]: 143 meq/L
PL [5]: 160.4 mg/dL
RALB [5]: 3.3 g/dL
TBIL [5]: 0.008 mg/dL
TC [5]: 91.8 mg/dL
TG [5]: 77 mg/dL
TP [5]: 6 g/dL
gamma-GTP [5]: 1.4 IU/L
TERMINAL_BW [6]: 220 g
TERMINAL_BW [7]: 226 g
TERMINAL_BW [8]: 300.4 g
APTT [6]: 21.5 s
Bas [6]: 0%
Eos [6]: 1%
Fbg [6]: 314.4 mg/dL
Hb [6]: 12.4 g/dL
Ht [6]: 36%
Lym [6]: 84.6%
MCH [6]: 22.1 pg
MCHC [6]: 34.5%
MCV [6]: 64.2 fL
Mono [6]: 1.8%
Neu [6]: 11.6%
PT [6]: 15.1 s
Plat [6]: 192.2 x10_4/uL
RBC [6]: 561.4 x10_4/ul
Ret [6]: 4.1%
WBC [6]: 73.3 x10_2/uL
APTT [7]: 28.3 s
Bas [7]: 0%
Eos [7]: 0.2%
Fbg [7]: 458.2 mg/dL
Hb [7]: 12.5 g/dL
Ht [7]: 35%
Lym [7]: 85.8%
MCH [7]: 21.8 pg
MCHC [7]: 35.6%
MCV [7]: 61.2 fL
Mono [7]: 2%
Neu [7]: 10.6%
PT [7]: 18.9 s
Plat [7]: 86.4 x10_4/uL
RBC [7]: 571.6 x10_4/ul
Ret [7]: 3%
WBC [7]: 49.6 x10_2/uL
APTT [8]: 24.3 s
Bas [8]: 0%
Eos [8]: 1%
Fbg [8]: 339.5 mg/dL
Hb [8]: 12.4 g/dL
Ht [8]: 35.6%
Lym [8]: 87%
MCH [8]: 21.5 pg
MCHC [8]: 34.9%
MCV [8]: 61.6 fL
Mono [8]: 1%
Neu [8]: 10.5%
PT [8]: 16.4 s
Plat [8]: 135.4 x10_4/uL
RBC [8]: 577.5 x10_4/ul
Ret [8]: 5.3%
WBC [8]: 35.2 x10_2/uL
KIDNEY_L [6]: 1 g
KIDNEY_R [6]: 1 g
KIDNEY_TOTAL [6]: 2 g
KIDNEY_L [7]: 1.1 g
KIDNEY_R [7]: 1.1 g
KIDNEY_TOTAL [7]: 2.1 g
KIDNEY_L [8]: 1.1 g
KIDNEY_R [8]: 1.2 g
KIDNEY_TOTAL [8]: 2.3 g
LIVER [6]: 10.9 g
LIVER [7]: 11.5 g
LIVER [8]: 12.9 g
A/G [6]: 1.1
ALP [6]: 1412.8 IU/L
ALT [6]: 29.6 IU/L
AST [6]: 75.2 IU/L
BUN [6]: 17.8 mg/dL
CRE [6]: 0.1 mg/dL
Ca [6]: 11.3 mg/dL
Cl [6]: 105.2 meq/L
DBIL [6]: 0 mg/dL
GLC [6]: 191.2 mg/dL
IP [6]: 6.6 mg/dL
K [6]: 4.1 meq/L
LDH [6]: 255.6 IU/L
Na [6]: 142.6 meq/L
PL [6]: 179.8 mg/dL
RALB [6]: 3.3 g/dL
TBIL [6]: 0.01 mg/dL
TC [6]: 98.2 mg/dL
TG [6]: 56.4 mg/dL
TP [6]: 6.2 g/dL
gamma-GTP [6]: 1 IU/L
A/G [7]: 0.9
ALP [7]: 976.6 IU/L
ALT [7]: 135 IU/L
AST [7]: 523.6 IU/L
BUN [7]: 31.6 mg/dL
CRE [7]: 0.2 mg/dL
Ca [7]: 11.2 mg/dL
Cl [7]: 106.8 meq/L
DBIL [7]: 0.036 mg/dL
GLC [7]: 168.8 mg/dL
IP [7]: 8.4 mg/dL
K [7]: 4.8 meq/L
LDH [7]: 1529.2 IU/L
Na [7]: 142.6 meq/L
PL [7]: 149.6 mg/dL
RALB [7]: 3 g/dL
TBIL [7]: 0.074 mg/dL
TC [7]: 94.8 mg/dL
TG [7]: 35.8 mg/dL
TP [7]: 6.5 g/dL
gamma-GTP [7]: 1.4 IU/L
A/G [8]: 1.1
ALP [8]: 982 IU/L
ALT [8]: 32 IU/L
AST [8]: 71.5 IU/L
BUN [8]: 19 mg/dL
CRE [8]: 0.2 mg/dL
Ca [8]: 10.8 mg/dL
Cl [8]: 106.5 meq/L
DBIL [8]: 0.01 mg/dL
GLC [8]: 192.5 mg/dL
IP [8]: 5.7 mg/dL
K [8]: 3.9 meq/L
LDH [8]: 214 IU/L
Na [8]: 141.5 meq/L
PL [8]: 138.5 mg/dL
RALB [8]: 3.4 g/dL
TBIL [8]: 0.05 mg/dL
TC [8]: 73 mg/dL
TG [8]: 42.5 mg/dL
TP [8]: 6.5 g/dL
gamma-GTP [8]: 2 IU/L
